Where two headings read alike, the source gives them in different places.
What was measured:
[1] = molecular target: T1, Recombinant rhinovirus 3C protease, serotype 14 (Human rhinovirus 14, UniProt P03303); experiment: Inhibition of rhinovirus 3C protease (FRET assay, kobs/[I]), serotype 14; type: biochemical; conditions: HRV-14; for kinact/KI: pH 7.6, read-out: kobs/[I] (3C protease inhibition activity)
T1 construct: Recombinant rhinovirus 3C proteases; made in house
Protocol: Inhibition of Rhinovirus 3C Protease:
Stock solutions (50 mM, in DMSO) of various compounds were prepared; dilutions were in the same solvent. Recombinant rhinovirus 3C proteases (see Birch et al., “Purification of recombinant human rhinovirus 14 3C protease expressed in Escherichia coli,” Protein Expr. Pur. (1995), vol. 6(5), 609-618) from serotypes 14, 16, and 2 were prepared by the following standard chromatographic procedures: (1) ion exchange using Q Sepharose Fast Flow from Pharmacia; (2) affinity chromatography using Affi-Gel Blue from Biorad; and (3) sizing using Sephadex G-100 from Pharmacia. Each assay sample contained 2% DMSO, 50 mM tris pH 7.6, 1 mM EDTA, a test compound at the indicated concentration, approximately 1 μM substrate, and 50-100 nM protease. The kobs/I values were obtained from reactions initiated by addition of enzyme rather than substrate. RVP activity was measured in the fluorescence resonance energy transfer assay. The substrate was (N-terminal) DABCYL-([…]-EDANS. In the uncleaved peptide, the EDANS fluorescence was quenched by the proximal DABCYL moiety. When the peptide was cleaved, the quenching was relieved, and activity was measured as an increase in fluorescence signal. The tabulated data in the column designated kobs/[I] were measured from progress curves in enzyme start experiments.

HRV-14 = experiment: Antirhinoviral H1-HeLa cell culture assay (XTT cell protection, EC50), HRV-14; type: cell-based, human rhinovirus (HRV) serotype-14 in H1-HeLa cells
Protocol: (§1) Antirhinoviral H1-HeLa Cell Culture Assay:
(§2) In this cell protection assay, the ability of compounds to protect cells against HRV infection was measured by the XTT dye reduction method, which is described in Weislow et al., J. Natl. Cancer Inst. […] H1-HeLa cells were infected with HRV-14 at a multiplicity of infection (m.o.i.) of 0.13 (virus particles/cell) or mock-infected with medium only. Infected or mock-infected cells were resuspended at 8×10^5 cells per mL, and incubated with appropriate concentrations of the compounds to be tested. Two days later, XTT/PMS was added to test plates and the amount of formazan produced was quantified spectrophotometrically at 450/650 nm. […] The therapeutic index (TI) was calculated by dividing the CC50 value by the EC50 value.
(§3) All strains of human rhinovirus (HRV) for use in this assay were purchased from American Type Culture Collection (ATCC), except for HRV serotype-14 (produced from the infectious cDNA clone constructed by Dr. Robert Rueckert, Institute for Molecular Virology, University of Wisconsin, Madison, Wis.). HRV stocks were propagated and viral assays were performed in H1-HeLa cells (ATCC). Cells were grown in minimal essential medium with 10% fetal bovine serum, available from Life Technologies (Gaithersburg, Md.).

[2] = Cytotoxicity (CC50) in mock-infected H1-HeLa cells, XTT dye reduction; type: cell-based, human; conditions: human, H1-HeLa cells, mock-infected; line of HRV-14
Protocol: as §2, §3
(§4) Coxsackievirus types A-21 (CAV-21) and B3 (CVB3) were purchased from American Type Culture Collection (ATCC, Rockville, Md.). Virus stocks were propagated and antiviral assays were performed in H1-HeLa cells (ATCC). Cells were grown in minimal essential medium with 10% fetal bovine serum (Life Technologies, Gaithersburg, Md.). The ability of the compounds of this invention to protect cells against either CAV-21 or CVB3 infection was measured by the XTT dye reduction method. This method is described in Weislow et al., J. Natl. Cancer Inst. […] H1-HeLa cells were infected with CAV-21 or CVB3 at a multiplicity of infection (m.o.i.) of 0.025 or 0.075, respectively, or mock-infected with medium only. H1-HeLa cells were plated at 4×10^4 cells per well in a 96-well plate and incubated with appropriate concentrations of the test compound. One day (CVB3) or two days (CAV-21) later, XTT/PMS was added to test plates and the amount of formazan produced was quantified spectrophotometrically at 450/650 nm. […] The therapeutic index (TI) was calculated by dividing the CC50 by the EC50.

H1-HeLa cells = experiment: as above; type: cell-based, human
Protocol: as §2, §3, §4

[3] = tested on: strains of human rhinovirus (HRV); experiment: Antirhinoviral H1-HeLa cell culture assay (XTT cell protection, EC50), other HRV strains; type: cell-based, human rhinovirus in H1-HeLa cells; conditions: read-out: EC50
Protocol: as §1
In this cell protection assay, the ability of compounds to protect cells against HRV infection was measured by the XTT dye reduction method, which is described in Weislow et al., J. Natl. Cancer Inst. (1989), vol. 81, 577-586. H1-HeLa cells were infected with HRV-14 at a multiplicity of infection (m.o.i.) of 0.13 (virus particles/cell) or mock-infected with medium only. Infected or mock-infected cells were resuspended at 8×10^5 cells per mL, and incubated with appropriate concentrations of the compounds to be tested. Two days later, XTT/PMS was added to test plates and the amount of formazan produced was quantified spectrophotometrically at 450/650 nm. […] The therapeutic index (TI) was calculated by dividing the CC50 value by the EC50 value.
as §3

[4] = Rhinovirus B, HRV14, H1-HeLa, HRV-14, read-out: EC50

T1 sequence (P03303 1538-1719): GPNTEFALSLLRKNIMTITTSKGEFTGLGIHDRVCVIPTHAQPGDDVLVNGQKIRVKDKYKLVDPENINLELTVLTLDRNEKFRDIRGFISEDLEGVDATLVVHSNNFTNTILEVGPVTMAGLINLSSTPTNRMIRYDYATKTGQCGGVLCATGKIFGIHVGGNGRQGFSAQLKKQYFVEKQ

Row | Structure (SMILES) | kinact/KI [1] [M⁻¹ s⁻¹] | EC50 (HRV-14; [4]) [nM] | CC50 at 2 days [2] [nM] | further results
1 | CC[C@@H](C(=O)N[C@H](/C=C/C(=O)O)C[C@@H]1CCNC1=O)n1cccc(NC(=O)c2cc(C)on2)c1=O [Compound 35, trans-(2S,3″″S,4S)-4-(2′-{3″-[(5′″-Methylisoxazole-3′″-carbonyl)amino]-2″-oxo-2″H-pyridin-1″-yl}butyrylamino)-5-(2″″-oxopyrrolidin-3″″-yl)pent-2-enoic Acid] | 220 | – | > 10000 | EC50 (HRV-14; Rhinovirus B, HRV14, H1-HeLa): > 10000 nM
2 | CCOC(=O)/C=C/[C@H](CCC(N)=O)NC(=O)Cn1cccc(NC(=O)OCc2ccccc2)c1=O [Compound 17, trans-(4S)-4-[2′-(3″-Benzyloxycarbonylamino-2″-oxo-2″H-pyridin-1″-yl)acetylamino]-6-carbamoylhex-2-enoic Acid Ethyl Ester] | 348 | > 10000 | > 10000 | –
3 | CCOC(=O)/C=C/[C@H](CCC(N)=O)NC(=O)[C@H](Cc1ccccc1)n1cccc(NC(=O)C(C)(C)C)c1=O [Compound 9, trans-(2′S,4S)-6-Carbamoyl-4-{2′-[3″-(2′″,2′″-dimethylpropionylamino)-2″-oxo-2″H-pyridin-1″-yl]-3′-phenylpropionylamino}hex-2-enoic Acid Ethyl Ester] | 5040 | 518 | > 10000 | –
4 | CCOC(=O)/C=C/[C@H](CCC(N)=O)NC(=O)[C@H](Cc1ccccc1)n1cccc(NC(C)=O)c1=O [Compound 8, trans-(2′S,4S)-4-[2′-(3″-Acetylamino-2″-oxo-2″H-pyridin-1″-yl)-3′-phenypropionylamino]-6-carbamoylhex-2-enoic Acid Ethyl Ester] | 7660 | 888 | > 10000 | –
5 | CCOC(=O)/C=C/[C@H](C[C@H]1CCNC1=O)NC(=O)[C@H](Cc1ccccc1)n1cccc(NC(=O)OCc2ccccc2)c1=O [Compound 21, trans-(2′S,3′″R,4S)-4-[2′-(3″-Benzyloxycarbonylamino-2″-oxo-2″H-pyridin-1″-yl)-3′-phenylpropionylamino]-5-(2′″-oxopyrrolidin-3′″-yl)pent-2-enoic Acid Ethyl Ester] | 6340 | – | > 10000 | EC50 (HRV-14; Rhinovirus B, HRV14, H1-HeLa): 469 nM
6 | Cc1cc(C(=O)Nc2cccn(C(Cc3ccc(F)c(F)c3)C(=O)N[C@H](/C=C/C(=O)OCC(C)(C)C)C[C@@H]3CCNC3=O)c2=O)no1 (relative stereo) [Compound 47, trans-(2′S,3″″″S,4S)-4-[3′-(3″,4″-Difluorophenyl)-2′-(3′″-{[1″″-(5′″″-methylisoxazol-3′″″-yl)methanoyl]amino}-2″″-oxo-2″″H-pyridin-1″″-yl)propanoylamino]-5-(2″″″-oxopyrrolidin-3″″″-yl)pent-2-enoic Acid 2,2-Dimethylpropyl Ester] | – | – | – | kobs/[I] (3C protease inhibition activity) [1]: 1,400,000 M^−1s^−1; EC50 (HRV-14; HRV-14, read-out: EC50): 40 nM; CC50 (H1-HeLa cells; line of HRV-1A): > 10000 nM; CC50 (H1-HeLa cells; line of HRV-2): > 10000 nM; CC50 (H1-HeLa cells; line of HRV-3): > 10000 nM; CC50 (H1-HeLa cells; line of HRV-9): > 10000 nM; CC50 (H1-HeLa cells; line of HRV-10): > 10000 nM; CC50 (H1-HeLa cells; line of HRV-14): > 10000 nM; CC50 (H1-HeLa cells; line of HRV-16): > 10000 nM; CC50 (H1-HeLa cells; line of HRV-25): > 10000 nM; CC50 (H1-HeLa cells; line of HRV-39): > 10000 nM; EC50 ([3]; HRV-1A): 148 nM; EC50 ([3]; HRV-2): 133 nM; EC50 ([3]; HRV-3): 18 nM; EC50 ([3]; HRV-9): 121 nM; EC50 ([3]; HRV-10): 114 nM; EC50 ([3]; HRV-16): 49 nM; EC50 ([3]; HRV-25): 193 nM; EC50 ([3]; HRV-39): 168 nM

More lines, main results first:

Row | kinact/KI [1] [M⁻¹ s⁻¹] | EC50 (HRV-14; [4]) [nM] | Structure (SMILES) | CC50 at 2 days [2] [nM] | further results
7 | 116000 | 125 | CCOC(=O)/C=C/[C@H](CCC(N)=O)NC(=O)[C@H](Cc1ccccc1)n1ccc(C)c(NC(=O)c2cc(C)on2)c1=O [Compound 18, trans-(2′S,4S)-6-Carbamoyl-4-(2′-{4″-methyl-3″-[(5′″-methylisoxazole-3′″-carbonyl)amino]-2″-oxo-2″H-pyridin-1″-yl}-3′-phenylpropionylamino)hex-2-enoic Acid Ethyl Ester] | > 10000 | –
8 | 385000 | 64 | O=C1OCC/C1=C\[C@H](C[C@@H]1CCNC1=O)NC(=O)[C@H](Cc1ccc(F)cc1)n1cccc(NC(=O)c2cc(Cl)on2)c1=O [Compound 23, trans-(2″S,2″S,3″″″S)-5-Chloroisoxazole-3-carboxylic Acid (1′-{2″-(4′″-fluorophenyl)-1″-[2″″-(2′″″-oxodihydrofuran-3′″″-ylidene)-1″″-(2″″″-oxopyrrolidin-3″″″-ylmethyl)ethylcarbamoyl]ethyl}-2′-oxo-1′,2′′-dihydropyridin-3′-yl)amide] | > 10000 | –
9 | 74000 | 325 | O=C1OCC/C1=C\[C@H](C[C@@H]1CCNC1=O)NC(=O)[C@H](Cc1ccc(F)cc1)n1cccc(NC(=O)C2CCCC2)c1=O [Compound 16, trans-(2′″S,2′″S,3′″″S)-Cyclopentanecarboxylic acid(1-{2′-(4″-fluorophenyl)-1′-[2′-(2″″-oxo-dihydrofuran-3″″-ylidene)-1-(2′″″-oxopyrrolidin-3′″″-ylmethyl)ethylcarbamoyl]ethyl}-2-oxo-1,2-dihydropyridin-3-yl)amide] | > 10000 | –
10 | 6500 | 178 | CCOC(=O)/C=C/[C@H](CCC(N)=O)NC(=O)[C@H](CC1CCCCC1)n1cccc(NC(=O)OCc2ccccc2)c1=O [Compound 15, trans-(2′S,4S)-4-[2′-(3″-Benzyloxycarbonylamino-2″-oxo-2″H-pyridin-1″-yl)-3′-cyclohexylpropionylamino]-6-carbamoyl-hex-2-enoic Acid Ethyl Ester] | > 10000 | –
11 | 25800 | 75 | CCOC(=O)/C=C/[C@H](CCC(N)=O)NC(=O)[C@H](Cc1ccccc1)n1ccc(C)c(NC(=O)OCc2ccccc2)c1=O [Compound 12, trans-(2′S,4S)-4-[2′-(3″-Benzyloxycarbonylamino-4″-methyl-2″-oxo-2″H-pyridin-1″-yl)-3′-phenylpropionylamino]-6-carbamoylhex-2-enoic Acid Ethyl Ester] | > 10000 | –
12 | 193000 | < 3.2 | CCOC(=O)/C=C/[C@H](CCC(N)=O)NC(=O)[C@H](Cc1ccc(F)c(F)c1)n1cccc(NC(=O)OCc2ccccc2)c1=O [Compound 11, trans-(2′S,4S)-4-[2′-(3″-Benzyloxycarbonylamino-2″-oxo-2″H-pyridin-1″-yl)-3′-(3′″,4′″-difluorophenyl)propionylamino]-6-carbamoylhex-2-enoic Acid Ethyl Ester] | > 10000 | –
